Measurements published in publication PMC10575921 (Nature Communications, 2023).
Several values for one entry are separate records, joined by “and”; a condition that tells them apart may be missing. Equal entries are not always repeated. Where two headings read alike, the source gives them in different places.

Experiments:
[1] = molecular target: T1, SARS-CoV-2 3CL^pro (Severe acute respiratory syndrome coronavirus 2, UniProt P0DTD1); assay: biochemical; conditions: for inhibition at 1 µM: concentration 1000.00 nM
[2] = tested on: SARS-CoV-2 Delta strain; assay: microbe, parasite or virus in culture; format: cell-based
[3] = in vitro; conditions: African green monkey
[4] = buffer, pH 7.4
[5] = molecular target: T1, SARS-CoV-2 3CL^pro; format: biochemical
[6] = 500.00 nM, read-out: inhibition ratio (%)
[7] = Severe acute respiratory syndrome coronavirus 2, Vero C1008, read-out: EC50 (nM) Mean
[8] = concentration 15.63 nM, read-out: inhibition ratio (%)
[9] = concentration 31.25 nM, read-out: inhibition ratio (%)
[10] = concentration 500.00 nM, read-out: inhibition ratio (%)

CC(C)(C)[C@H](NS(C)(=O)=O)C(=O)N1CC2(C[C@H]1C(=O)N[C@H](C#N)C[C@@H]1CCNC1=O)SCCS2 [compound 11]
inhibition at 0.01563 µM ([1]; 15.63 nM, read-out: inhibition ratio (%)): 54% | inhibition at 0.03125 µM ([1]; 31.25 nM, read-out: inhibition ratio (%)): 73.9% | inhibition at 0.5 µM [1, 6]: 94.6% | EC50 [2, 7]: 10400 nM | CC50 [3]: > 500 µM

CC(C)(C)NC(=O)N[C@H](C(=O)N1C[C@H]2[C@@H]([C@H]1C(=O)N[C@H](C=O)C[C@@H]1CCNC1=O)C2(C)C)C(C)(C)C [compound 1]
inhibition at 0.01563 µM [1, 8]: 72.2% | inhibition at 0.03125 µM [1, 9]: 81.7% | inhibition at 1 µM ([1]; read-out: inhibition ratio (%)): 99.4% | GSHt1/2 (half-life of the electrophile warhead to react with glutathione) [4]: 101 min

CC(C)(C)NC(=O)N[C@H](C(=O)N1CC2(C[C@H]1C(=O)N[C@H](C#N)C[C@@H]1CCNC1=O)SCCS2)C(C)(C)C [compound 7]
inhibition at 0.01563 µM [1, 8]: 28.1% | inhibition at 0.5 µM [1, 10]: 97.8% | EC50 [2, 7]: 30000 nM | EC50 ([2]; read-out: EC50^CP): 220 nM | CC50 [3]: > 500 µM

CC(C)(C)[C@H](NC(=O)C(F)(F)F)C(=O)N1C[C@H]2[C@@H]([C@H]1C(=O)N[C@H](C#N)C[C@@H]1CCNC1=O)C2(C)C [nirmatrelvir, reference compound]
EC50 ([2]; read-out: EC50^CP): 30 nM

CC(C)(C)NC(=O)N[C@H](C(=O)N1C[C@@H](Sc2ccccc2)C[C@H]1C(=O)N[C@H](C#N)C[C@@H]1CCNC1=O)C(C)(C)C [compound 6]
IC50 ([1]; IC50): 7210 nM | IC50 ([1]; IC50 (nM)): 6060 nM and 8400 nM and 7190 nM | inhibition at 3.125 µM ([1]; concentration 3125.00 nM, read-out: inhibition ratio (%)): 22.4% | inhibition at 50 µM ([1]; concentration 50000.00 nM, read-out: inhibition ratio (%)): 90.5% | inhibition at 100 µM ([1]; concentration 100000.00 nM, read-out: inhibition ratio (%)): 97.7% | inhibition at 25 µM ([1]; concentration […], read-out: inhibition ratio (%)): 81.8%

CC(=O)/C=C/[C@H](C[C@@H]1CCNC1=O)NC(=O)[C@@H]1[C@@H]2[C@H](CN1C(=O)[C@@H](NC(=O)NC(C)(C)C)C(C)(C)C)C2(C)C [compound 3]
IC50 ([1]; IC50): 14 nM | IC50 ([1]; IC50 (nM)): 12 nM and 17 nM and 14 nM | inhibition at 0.01563 µM [1, 8]: 52.7% | inhibition at 0.03125 µM [1, 9]: 85.4% | inhibition at 0.5 µM [1, 10]: 101% | inhibition at 1 µM ([1]; read-out: inhibition ratio (%)): 99.6% | reversibility of SARS-CoV-2 3CLpro inhibition [5]: irreversible | GSHt1/2 (half-life of the electrophile warhead to react with glutathione) [4]: 15 min

CC(C)(C)[C@H](NC(=O)C1(F)CC1)C(=O)N1CC2(C[C@H]1C(=O)N[C@H](C#N)C[C@@H]1CCNC1=O)SCCS2 [compound 10]
inhibition at 0.5 µM [1, 6]: 94% | EC50 [2, 7]: 1100 nM | CC50 [3]: > 500 µM

CC(C)(C)NC(=O)N[C@H](C(=O)N1C[C@H]2[C@@H]([C@H]1C(=O)NC(CC1CCC1)C(=O)C(N)=O)C2(C)C)C(C)(C)C (some centres unmarked) [boceprevir, reference compound]
inhibition at 50 µM ([1]; 50000.00 nM, read-out: inhibition ratio (%)): 90.9% | inhibition at 100 µM ([1]; 100000.00 nM, read-out: inhibition ratio (%)): 97.1% | inhibition at 25 µM ([1]; […], read-out: inhibition ratio (%)): 82.4%
